Converted amounts (≈) assume the structure as drawn. The source made the active and inactive calls. No cut-off for these calls is given here.
Key:
[1] = Aqueous solubility of the compound in dimethyl sulfoxide; format: physicochemical; settings: aqueous solution with dimethyl sulfoxide
K562 = experiment: Antiproliferative activity against human K562 cells after 3 days by ATP lite 1 step assay; format: functional, cell-based; settings: K562, 72 h
[2] = Antiproliferative activity against human KU812 cells after 3 days by ATP lite 1 step assay; format: functional, cell-based; settings: KU812, 72 h
[3] = Solubility of the compound in 30 % hydroxypropyl-beta-cyclodextrins solution; format: physicochemical; settings: 30% hydroxypropyl-beta-cyclodextrin solution
[4] = Lipophilicity, log P of the compound; format: physicochemical; settings: octanol/water
SAOS-2 = experiment: Anti proliferative activity against human Saos2 assessed as cell viability at 12.5 to 25 uM after 48 hrs by MTT assay; format: functional, cell-based
HL-60 = experiment: Anti proliferative activity against human HL60 assessed as cell viability at 12.5 to 25 uM after 48 hrs by MTT assay; format: functional, cell-based

| solubility [1] | IC50 (K562) | solubility [3] | logP [4] | Structure (SMILES) | IC50 [2] | Activity (SAOS-2) | Activity (HL-60) |
| --- | --- | --- | --- | --- | --- | --- | --- |
| 0.295 µM (≈ 0.131 µg/mL) | 7.19 µM | 314 µM (≈ 140 µg/mL) | 6.76 | CSc1nc(NCc2cccc(Cl)c2)c2cnn(CC(Cl)c3ccccc3)c2n1 (configuration not stated) | 24.1 µM | – | – |
| 0.158 µM (≈ 0.0724 µg/mL) | – | 612 µM (≈ 281 µg/mL) | 7.41 | CSc1nc(NCCc2ccc(Cl)cc2)c2cnn(CC(Cl)c3ccccc3)c2n1 (configuration not stated) | – | – | – |
| – | – | – | – | CC(O)COC[C@H]1O[C@@H]2O[C@H]3[C@H](O)[C@@H](O)[C@@H](O[C@H]4[C@H](O)[C@@H](O)[C@@H](O[C@H]5[C@H](O)[C@@H](O)[C@@H](O[C@H]6[C@H](O)[C@@H](O)[C@@H](O[C@H]7[C@H](O)[C@@H](O)[C@@H](O[C@H]8[C@H](O)[C@@H](O)[C@@H](O[C@H]1[C@H](O)[C@H]2O)O[C@@H]8COCC(C)O)O[C@@H]7COCC(C)O)O[C@@H]6COCC(C)O)O[C@@H]5COCC(C)O)O[C@@H]4COCC(C)O)O[C@@H]3COCC(C)O (some centres not stated) | – | inactive | inactive |
| 0.512 µM (≈ 0.21 µg/mL) | – | 838 µM (≈ 344 µg/mL) | 5.49 | CSc1nc(NCc2ccccc2)c2cnn(CC(Cl)c3ccccc3)c2n1 (configuration not stated) | – | – | – |
| 0.166 µM (≈ 0.0704 µg/mL) | – | 947 µM (≈ 402 µg/mL) | – | CSc1nc(NCCc2ccccc2)c2cnn(CC(Cl)c3ccccc3)c2n1 (configuration not stated) | – | – | – |
| 0.107 µM (≈ 0.0506 µg/mL) | – | 910 µM (≈ 430 µg/mL) | 7.4 | CCCSc1nc(NCc2cccc(Cl)c2)c2cnn(CC(Cl)c3ccccc3)c2n1 (configuration not stated) | – | – | – |
| 0.141 µM (≈ 0.0689 µg/mL) | – | 390 µM (≈ 191 µg/mL) | 6.37 | CSc1nc(NCc2cccc(Br)c2)c2cnn(CC(Cl)c3ccccc3)c2n1 (configuration not stated) | – | – | – |
| – | 6.11 µM | – | 5.88 | CSc1nc(NCc2ccccc2F)c2cnn(CC(Cl)c3ccccc3)c2n1 (configuration not stated) | 7.87 µM | – | – |
| 0.588 µM (≈ 0.26 µg/mL) | – | 790 µM (≈ 349 µg/mL) | 6.44 | CSc1nc(NCCc2cccc(F)c2)c2cnn(CC(Cl)c3ccccc3)c2n1 (configuration not stated) | – | – | – |
